Here are results for 12 compounds from patent US20230089867A1, “CYCLIC PENTAMER COMPOUNDS AS PROPROTEIN CONVERTASE SUBTILISIN/KEXIN TYPE 9 (PCSK9) INHIBITORS FOR THE TREATMENT OF METABOLIC DISORDER” (Novartis AG, priority 2018, published 2023).

Molecules are shown by their SMILES. Where two headings read alike, the source gives them in different places.

For data set [1] the following is noted: amide bond, 18-membered ring, HATU/HOAt/2,6-lutidine, DCM.
The target in data set [2] is human PCSK9 (Homo sapiens, UniProt Q8NBP7). As to the kind of experiment: PCSK9 ligand binding TR-FRET assay (interference with binding of human PCSK9 to human LDLR). To be noted: for Max % inhibition: PCSK9 FRET assay, efficacy (Amax), 100% = 1 uM unlabeled human PCSK9, 0% = DMSO; for IC50: TR-FRET, human PCSK9 Alexa Fluor 647 / human LDLR extracellular domain-Europium Kryptate, read-out: PCSK9 FRET Assay IC50. Summed up:
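Threefold compound dilutions were pre-incubated 30 min with PCSK9, after which 4 nM Europium Kryptate-tagged human LDLR ectodomain was added for a further 2 h.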

Sequence of human PCSK9 (Q8NBP7 153-692): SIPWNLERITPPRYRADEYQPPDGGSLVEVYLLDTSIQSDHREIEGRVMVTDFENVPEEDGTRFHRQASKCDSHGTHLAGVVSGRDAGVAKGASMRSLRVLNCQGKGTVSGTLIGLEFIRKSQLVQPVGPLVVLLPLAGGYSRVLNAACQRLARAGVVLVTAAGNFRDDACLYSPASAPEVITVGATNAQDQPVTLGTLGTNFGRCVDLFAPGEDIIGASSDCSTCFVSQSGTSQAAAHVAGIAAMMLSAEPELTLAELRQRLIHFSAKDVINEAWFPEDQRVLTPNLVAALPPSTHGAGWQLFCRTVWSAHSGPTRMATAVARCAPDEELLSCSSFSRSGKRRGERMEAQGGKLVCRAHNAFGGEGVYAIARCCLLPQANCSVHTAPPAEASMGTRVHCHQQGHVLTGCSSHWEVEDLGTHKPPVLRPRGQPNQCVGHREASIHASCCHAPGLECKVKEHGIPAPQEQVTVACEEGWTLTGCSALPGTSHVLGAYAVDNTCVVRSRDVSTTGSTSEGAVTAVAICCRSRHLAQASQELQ
Sequence of human PCSK9 (Q8NBP7 31-152 partner limits assumed): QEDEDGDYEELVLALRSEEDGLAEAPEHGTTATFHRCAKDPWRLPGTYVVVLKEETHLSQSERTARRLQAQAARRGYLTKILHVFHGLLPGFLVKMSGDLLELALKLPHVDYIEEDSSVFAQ

Compound `COC[C@@H]1NC(=O)[C@H](C)N(Cc2ccc(Cl)cc2Oc2ccc(-c3cnc(CN(C)C)n3C)cc2)C(=O)C[C@@H](Cc2ccccc2)C(=O)N(C)C2CCOCC2NC(=O)C[C@H](Cc2ccc(Cl)cc2)N(C)C1=O` (stereo partly drawn) registered a ring closure, isolated yield in data set [1] (from (3R)-3-benzyl-4-((3-((S)-3-((S)-2-((S)-2-((4-chloro-2-(4-(2-((dimethylamino)methyl)-1-methyl-1H-imidazol-5-yl)phenoxy)benzyl)amino)propanamido)-3-methoxy-N-methylpropanamido)-4-(4-chloro phenyl)butanamido)tetrahydro-2H-pyran-4-yl)(methyl)amino)-4-oxobutanoic acid, 45.0 °C) of 17%.
`COC[C@@H]1NC(=O)[C@H](CCNC(=O)OC(C)(C)C)N(Cc2ccc(Cl)cc2Oc2ccc(-c3cnc(CN(C)C)n3C)cc2)C(=O)C[C@@H](Cc2ccccc2)C(=O)N(C)[C@H]2CCCC[C@@H]2NC(=O)C[C@H](Cc2ccc(Cl)cc2)N(C)C1=O` had a ring closure, isolated yield in data set [1] (from (R)-3-Benzyl-4-(((1S,2S)-2-((8S,11S,14S)-8-((4-chloro-2-(4-(2-((dimethylamino)methyl)-1-methyl-1H-imidazol-5-yl)phenoxy)benzyl)amino)-14-(4-chlorobenzyl)-11-(methoxymethyl)-2,2,13-trimethyl-4,9,12-trioxo-3-oxa-5,10,13-triazahexadecan-16-amido)cyclohexyl)(methyl)amino)-4-oxobutanoic acid, 0.845 mM, 45.0 °C) of 59.6%.
`COC[C@@H]1NC(=O)[C@H](C)N(Cc2ccc(Cl)cc2Oc2ccc(-c3cnc(CN(C)C)n3C)cc2)C(=O)C[C@@H](Cc2ccccc2)C(=O)N(C)C2CC2NC(=O)C[C@H](Cc2ccc(Cl)cc2)N(C)C1=O.O=C(O)C(F)(F)F` (mixture of isomers) [Compound 147, (5S,8S,11S,15R)-15-benzyl-12-(4-chloro-2-(4-(2-((dimethylamino)methyl)-1-methyl-1H-imidazol-5-yl)phenoxy)benzyl)-5-(4-chlorobenzyl)-8-(methoxymethyl)-6,11,17-trimethyl-2,6,9,12,17-pentaazabicyclo[16.1.0]nonadecane-3,7,10,13,16-pentaone trifluoroacetate] gave a ring closure, isolated yield in data set [1] (from (3R)-3-benzyl-4-((2-((S)-3-((S)-2-((S)-2-((4-chloro-2-(4-(2-((dimethylamino)methyl)-1-methyl-1H-imidazol-5-yl)phenoxy)benzyl)amino)propanamido)-3-methoxy-N-methylpropanamido)-4-(4-chlorophenyl)butanamido)cyclopropyl)(methyl)amino)-4-oxobutanoic acid?, 45.0 °C) of 19%. In addition, in data set [2], the Max % inhibition stood at 104.16% and the IC50 was found to be 3.7 nM.
Compound `CCc1ccc(CN2C(=O)C[C@@H](Cc3ccccc3)C(=O)N(C)[C@@H](C)CNC(=O)C[C@H](Cc3ccc(Cl)cc3)N(C)C(=O)[C@H](COC)NC(=O)[C@@H]2CCF)c(Oc2ccc(-c3cnc(CN4CCCC4)n3C)cc2)c1` [Compound 26, (2S,5S,8S,13S,16R)-16-benzyl-8-(4-chlorobenzyl)-1-(4-ethyl-2-(4-(1-methyl-2-(pyrrolidin-1-ylmethyl)-1H-imidazol-5-yl)phenoxy)benzyl)-2-(2-fluoroethyl)-5-(methoxymethyl)-7,13,14-trimethyl-1,4,7,11,14-pentaazacyclooctadecane-3,6,10,15,18-pentaone] came in with a ring closure, isolated yield in data set [1] (from (3S,6S,9S,14S,17R)-17-benzyl-9-(4-chlorobenzyl)-1-(4-ethyl-2-(4-(1-methyl-2-(pyrrolidin-1-ylmethyl)-1H-imidazol-5-yl)phenoxy)phenyl)-3-(2-fluoroethyl)-6-(methoxymethyl)-8,14,15-trimethyl-4,7,11,16-tetraoxo-2,5,8,12,15-pentaazanonadecan-19-oic acid, 0.238 mM, 39.0 °C) of 47%. Besides, in data set [2], the Max % inhibition is given as 104.11% and the IC50 stood at 2.4 nM.
As for `C=CC[C@@H]1CC(=O)N(Cc2ccc(Cl)cc2Oc2ccc(-c3cnc(CN(C)C)n3C)cc2)[C@@H](C)C(=O)N[C@@H](COC)C(=O)N(C)[C@@H](Cc2ccc(Cl)cc2)CC(=O)NC[C@H](C)N(C)C1=O` [Compound 44, (2S,5S,8S,13S,16R)-16-allyl-1-(4-chloro-2-(4-(2-((dimethylamino)methyl)-1-methyl-1H-imidazol-5-yl)phenoxy)benzyl)-8-(4-chlorobenzyl)-5-(methoxymethyl)-2,7,13,14-tetramethyl-1,4,7,11,14-pentaaza cyclooctadecane-3,6,10,15,18-pentaone], the ring closure, isolated yield in data set [1] (from (3S,6S,9S,14S,17R)-17-allyl-1-(4-chloro-2-(4-(2-((dimethylamino)methyl)-1-methyl-1H-imidazol-5-yl)phenoxy)phenyl)-9-(4-chlorobenzyl)-6-(methoxymethyl)-3,8,14,15-tetramethyl-4,7,11,16-tetraoxo-2,5,8,12,15-pentaazanonadecan-19-oic acid, 45.0 °C) was 26%. In data set [2], the Max % inhibition was 102.15% and the concentration for half-maximal inhibition (IC50) came out at 2.6 nM.
`CCOC[C@@H]1NC(=O)[C@H](C)N(Cc2ccc(Cl)cc2Oc2ccc(-c3cnc(CN(C)C)n3C)cc2)C(=O)C[C@@H](C)C(=O)N(C)[C@@H](C)CNC(=O)C[C@H](Cc2ccc(Cl)cc2)N(C)C1=O.O=CO` [Compound 53, (2S,5S,8S,13S,16R)-1-(4-chloro-2-(4-(2-((dimethylamino)methyl)-1-methyl-1H-imidazol-5-yl)phenoxy)benzyl)-8-(4-chlorobenzyl)-5-(ethoxymethyl)-2,7,13,14,16-pentamethyl-1,4,7,11,14-pentaaza cyclooctadecane-3,6,10,15,18-pentaone formate] gave a ring closure, isolated yield in data set [1] (from (3S,6S,9S,14S,17R)-1-(4-chloro-2-(4-(2-((dimethylamino)methyl)-1-methyl-1H-imidazol-5-yl)phenoxy)phenyl)-9-(4-chlorobenzyl)-6-(ethoxymethyl)-3,8,14,15,17-pentamethyl-4,7,11,16-tetraoxo-2,5,8,12,15-pentaazanonadecan-19-oic acid hydrochloride, 1.27 mM, 45.0 °C) of 9%. In data set [2], the Max % inhibition is given as 92.32% and the IC50 was 21.1 nM.
For `C[C@H]1CNC(=O)C[C@H](Cc2ccc(Cl)cc2)N(C)C(=O)[C@H](CC(=O)OC(C)(C)C)NC(=O)[C@H](C)N(Cc2ccc(Cl)cc2Oc2ccc(-c3cnc(CN(C)C)n3C)cc2)C(=O)C[C@@H](Cc2ccccc2)C(=O)N1C` [Compound 185, tert-butyl 2-((2S,5S,8S,13S,16R)-16-benzyl-1-(4-chloro-2-(4-(2-((dimethylamino)methyl)-1-methyl-1H-imidazol-5-yl)phenoxy)benzyl)-8-(4-chlorobenzyl)-2,7,13,14-tetramethyl-3,6,10,15,18-pentaoxo-1,4,7,11,14-pentaazacyclooctadecan-5-yl)acetate], the ring closure, isolated yield in data set [1] (from (3S,6S,9S,14S,17R)-17-benzyl-6-(2-(tert-butoxy)-2-oxoethyl)-1-(4-chloro-2-(4-(2-((dimethyl amino)methyl)-1-methyl-1H-imidazol-5-yl)phenoxy)phenyl)-9-(4-chlorobenzyl)-3,8,14,15-tetramethyl-4,7,11,16-tetraoxo-2,5,8,12,15-pentaazanonadecan-19-oic acid, 1.85 mM, 45.0 °C) came out at 46%. Further, in data set [2], the Max % inhibition came out at 96.86% and the concentration for half-maximal inhibition (IC50) amounted to 11.5 nM.
`CCn1c(-c2ccc(Oc3cc(Cl)ccc3CN3C(=O)C[C@@H](Cc4ccccc4)C(=O)N(C)[C@@H](C)CNC(=O)C[C@H](Cc4ccc(Cl)cc4)N(C)C(=O)[C@H](COC)NC(=O)[C@@H]3C)cc2)cnc1CN1CCCC1` [Compound 300, (2S,5S,8S,13S,16R)-16-benzyl-1-(4-chloro-2-(4-(1-ethyl-2-(pyrrolidin-1-ylmethyl)-1H-imidazol-5-yl)phenoxy)benzyl)-8-(4-chlorobenzyl)-5-(methoxymethyl)-2,7,13,14-tetramethyl-1,4,7,11,14-pentaazacyclooctadecane-3,6,10,15,18-pentaone]: in data set [2], the Max % inhibition is given as 80.60% and the IC50 turned out to be 2.1 nM.
In the case of `COC[C@@H]1NC(=O)[C@H](C)N(Cc2ccc(Cl)cc2Oc2ccc(-c3cncc(CN4CCCC4)c3C)cc2)C(=O)C[C@@H](Cc2ccccc2)C(=O)N(C)[C@@H](C)CNC(=O)C[C@H](Cc2ccc(Cl)cc2)N(C)C1=O` [Compound 301, (2S,5S,8S,13S,16R)-16-benzyl-1-(4-chloro-2-(4-(4-methyl-5-(pyrrolidin-1-ylmethyl)pyridin-3-yl)phenoxy)benzyl)-8-(4-chlorobenzyl)-5-(methoxymethyl)-2,7,13,14-tetramethyl-1,4,7,11,14-pentaazacyclooctadecane-3,6,10,15,18-pentaone], in data set [2], the Max % inhibition is reported as 54.20% and the IC50 is 3.9 nM.
On to `COC[C@@H]1NC(=O)[C@H](C)N(Cc2ccc(Cl)cc2Oc2ccc(-c3cnc4c(CN5CCCC5)cccn34)cc2)C(=O)C[C@@H](Cc2ccccc2)C(=O)N(C)[C@@H](C)CNC(=O)C[C@H](Cc2ccc(Cl)cc2)N(C)C1=O` [Compound 302], for which, in data set [2], the Max % inhibition came to 54.00% and the IC50 was found to be 3.5 nM.
As to `COC[C@@H]1NC(=O)[C@H](C)N(Cc2ccc(Cl)cc2Oc2ccc(-c3cnc(CN4CCCC4)n3CCF)cc2)C(=O)C[C@@H](Cc2ccccc2)C(=O)N(C)[C@@H](C)CNC(=O)C[C@H](Cc2ccc(Cl)cc2)N(C)C1=O` [Compound 303, (2S,5S,8S,13S,16R)-16-benzyl-1-(4-chloro-2-(4-(1-(2-fluoroethyl)-2-(pyrrolidin-1-ylmethyl)-1H-imidazol-5-yl)phenoxy)benzyl)-8-(4-chlorobenzyl)-5-(methoxymethyl)-2,7,13,14-tetramethyl-1,4,7,11,14-pentaazacyclooctadecane-3,6,10,15,18-pentaone], in data set [2], the Max % inhibition is 52.60% and the IC50 was 2.9 nM.
Consider `COC[C@@H]1NC(=O)[C@H](CCCN)N(Cc2ccc(Cl)cc2Oc2ccc(-c3cnc(CN(C)C)n3C)cc2)C(=O)C[C@@H](Cc2ccccc2)C(=O)N(C)[C@H]2CCCC[C@@H]2NC(=O)C[C@H](Cc2ccc(Cl)cc2)N(C)C1=O` [Compound 304, (4S,7S,10S,14R,16aS,20aS)-10-(3-aminopropyl)-14-benzyl-11-(4-chloro-2-(4-(2-((dimethylamino)methyl)-1-methyl-1H-imidazol-5-yl)phenoxy)benzyl)-4-(4-chlorobenzyl)-7-(methoxymethyl)-5,16-dimethylhexadecahydrobenzo[l][1,4,7,11,14]pentaazacyclooctadecine-2,6,9,12,15(3H)-pentaone], for which, in data set [2], the Max % inhibition came to 88.80% and the IC50 worked out at 0.6 nM.
